The text below walks through data of patent US9062008B2, “Compounds useful as inhibitors of ATR kinase” (Vertex Pharmaceuticals Incorporated, priority 2010, dated 2015).

The assay deals with T1, full-length ATR (Homo sapiens, UniProt Q13535).
T1 construct: Assays were carried out at 25° C. in the presence of 5 nM full-length ATR
Description: ATR Inhibition Assay (radioactive-phosphate incorporation). Type of assay: biochemical. The settings on record: for inhibition at 8 µM / % inhibition of ATR: at 8 uM. The protocol:
Compounds were screened for their ability to inhibit ATR kinase using a radioactive-phosphate incorporation assay. Assays were carried out in a mixture of 50 mM Tris/HCl (pH 7.5), 10 mM MgCl2 and 1 mM DTT. Final substrate concentrations were 10 μM [γ-33P]ATP (3mCi 33P ATP/mmol ATP, Perkin Elmer) and 800 μM target peptide ([…] (SEQ. ID NO: 1)).
Assays were carried out at 25° C. in the presence of 5 nM full-length ATR. An assay stock buffer solution was prepared containing all of the reagents listed above, with the exception of ATP and the test compound of interest. 13.5 μL of the stock solution was placed in a 96 well plate followed by addition of 2 μL of DMSO stock containing serial dilutions of the test compound (typically starting from a final concentration of 15 μM with 3-fold serial dilutions) in duplicate (final DMSO concentration 7%). The plate was pre-incubated for 10 minutes at 25° C. and the reaction initiated by addition of 15 μl. [γ-33P]ATP (final concentration 10 μM).
The reaction was stopped after […] by the addition of 30 μL 0.1 M phosphoric acid containing 2 mM ATP. A multiscreen phosphocellulose filter 96-well plate (Millipore, Cat no. MAPHN0B50) was pretreated with 100 μL 0.2M phosphoric acid prior to the addition of 45 μL of the stopped assay mixture. The plate was washed with 5×200 μL 0.2 M phosphoric acid. After drying, 100 μL Optiphase ‘SuperMix’ liquid scintillation cocktail (Perkin Elmer) was added to the well prior to scintillation counting (1450 Microbeta Liquid Scintillation Counter, Wallac).
After removing mean background values for all of the data points, Ki(app) data were calculated from non-linear regression analysis of the initial rate data using the Prism software package (GraphPad Prism version 3.0cx for Macintosh, GraphPad Software, San Diego Calif., USA).

The structures appear in SMILES notation.

T1 sequence (Q13535 whole entry): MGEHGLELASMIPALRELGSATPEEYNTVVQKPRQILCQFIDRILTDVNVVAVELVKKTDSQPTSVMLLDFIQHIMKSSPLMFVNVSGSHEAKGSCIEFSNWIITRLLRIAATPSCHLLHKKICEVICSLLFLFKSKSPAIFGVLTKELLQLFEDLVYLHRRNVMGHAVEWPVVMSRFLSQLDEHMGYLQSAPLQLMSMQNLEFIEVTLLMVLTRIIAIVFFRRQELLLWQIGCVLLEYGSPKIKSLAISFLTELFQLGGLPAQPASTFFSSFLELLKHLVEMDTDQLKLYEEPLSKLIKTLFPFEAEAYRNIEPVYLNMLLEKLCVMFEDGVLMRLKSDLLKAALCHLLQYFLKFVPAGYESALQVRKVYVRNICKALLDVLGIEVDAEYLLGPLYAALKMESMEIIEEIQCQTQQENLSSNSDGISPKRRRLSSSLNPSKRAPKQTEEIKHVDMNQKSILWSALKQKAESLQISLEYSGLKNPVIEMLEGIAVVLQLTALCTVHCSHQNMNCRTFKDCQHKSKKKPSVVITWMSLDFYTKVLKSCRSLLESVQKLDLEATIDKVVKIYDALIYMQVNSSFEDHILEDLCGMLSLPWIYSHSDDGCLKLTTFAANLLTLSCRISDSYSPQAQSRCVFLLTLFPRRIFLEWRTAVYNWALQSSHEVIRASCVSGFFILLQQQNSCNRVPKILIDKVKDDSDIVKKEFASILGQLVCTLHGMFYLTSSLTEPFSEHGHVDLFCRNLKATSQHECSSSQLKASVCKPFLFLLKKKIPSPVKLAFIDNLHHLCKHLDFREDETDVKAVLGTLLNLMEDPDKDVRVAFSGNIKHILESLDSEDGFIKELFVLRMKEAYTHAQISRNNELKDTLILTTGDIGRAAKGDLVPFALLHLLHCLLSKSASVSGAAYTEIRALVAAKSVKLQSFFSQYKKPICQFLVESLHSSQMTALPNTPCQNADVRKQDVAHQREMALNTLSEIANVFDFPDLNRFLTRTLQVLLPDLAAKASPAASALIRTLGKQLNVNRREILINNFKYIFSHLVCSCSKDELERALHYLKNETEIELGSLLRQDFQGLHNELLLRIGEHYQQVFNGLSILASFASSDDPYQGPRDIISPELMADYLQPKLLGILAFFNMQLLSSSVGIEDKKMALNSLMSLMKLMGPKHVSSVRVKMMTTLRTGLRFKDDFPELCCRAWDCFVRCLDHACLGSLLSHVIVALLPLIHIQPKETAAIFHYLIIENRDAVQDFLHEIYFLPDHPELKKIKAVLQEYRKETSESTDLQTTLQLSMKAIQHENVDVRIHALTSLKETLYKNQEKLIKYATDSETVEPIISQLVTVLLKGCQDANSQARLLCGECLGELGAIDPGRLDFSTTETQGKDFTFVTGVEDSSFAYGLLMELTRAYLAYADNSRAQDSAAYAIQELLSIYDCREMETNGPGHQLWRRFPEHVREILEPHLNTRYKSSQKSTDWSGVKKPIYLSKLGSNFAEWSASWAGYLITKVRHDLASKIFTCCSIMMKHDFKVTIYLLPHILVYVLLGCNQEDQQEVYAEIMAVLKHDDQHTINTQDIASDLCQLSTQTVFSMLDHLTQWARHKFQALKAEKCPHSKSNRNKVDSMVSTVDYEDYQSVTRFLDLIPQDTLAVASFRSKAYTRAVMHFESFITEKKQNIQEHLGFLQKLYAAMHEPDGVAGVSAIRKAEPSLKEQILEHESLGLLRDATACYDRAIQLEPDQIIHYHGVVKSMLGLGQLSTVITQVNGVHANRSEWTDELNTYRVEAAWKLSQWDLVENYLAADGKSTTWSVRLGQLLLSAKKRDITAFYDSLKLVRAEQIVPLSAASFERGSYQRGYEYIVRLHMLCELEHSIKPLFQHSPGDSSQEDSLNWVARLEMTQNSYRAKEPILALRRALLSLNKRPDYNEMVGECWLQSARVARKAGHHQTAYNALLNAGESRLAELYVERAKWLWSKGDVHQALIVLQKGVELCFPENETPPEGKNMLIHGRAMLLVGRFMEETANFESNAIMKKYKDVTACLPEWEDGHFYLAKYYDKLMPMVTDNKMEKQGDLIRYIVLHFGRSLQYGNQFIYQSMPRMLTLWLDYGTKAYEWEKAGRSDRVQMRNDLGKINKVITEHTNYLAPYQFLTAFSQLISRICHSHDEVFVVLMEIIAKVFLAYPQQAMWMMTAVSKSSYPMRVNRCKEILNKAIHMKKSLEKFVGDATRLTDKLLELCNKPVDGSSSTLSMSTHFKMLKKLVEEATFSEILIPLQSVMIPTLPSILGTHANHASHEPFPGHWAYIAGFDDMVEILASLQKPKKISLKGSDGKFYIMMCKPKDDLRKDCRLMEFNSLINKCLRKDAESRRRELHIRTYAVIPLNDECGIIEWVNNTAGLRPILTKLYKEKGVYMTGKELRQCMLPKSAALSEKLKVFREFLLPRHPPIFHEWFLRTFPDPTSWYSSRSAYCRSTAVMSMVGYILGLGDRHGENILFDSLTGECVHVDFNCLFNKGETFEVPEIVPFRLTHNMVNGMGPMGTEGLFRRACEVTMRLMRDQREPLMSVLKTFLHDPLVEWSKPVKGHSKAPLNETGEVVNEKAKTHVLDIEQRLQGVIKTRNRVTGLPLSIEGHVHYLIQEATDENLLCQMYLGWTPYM

Take `CC(C)S(=O)(=O)c1ccc(-c2cnc(N)c(NC[C@@H](O)c3ccccc3)n2)cc1` [Compound V-7, (1S)-2-[[3-Amino-6-(4-isopropylsulfonylphenyl)pyrazin-2-yl]amino]-1-phenyl-ethanol]: the Ki – broadly, the dissociation constant of the complex between target and ligand, obtained from inhibition or displacement – is above 1 µM; the inhibition – broadly, the share of the control response that was lost under treatment – at 8 µM came out at 30%.

In the case of `CC(C)S(=O)(=O)c1ccc(-c2cnc(N)c(NCCc3ccccc3)n2)cc1` [Compound V-5, 5-(4-Isopropylsulfonylphenyl)-N3-phenethyl-pyrazine-2,3-diamine], the inhibition at 8 µM turned out to be 20%.

Turning to `CS(=O)(=O)c1ccc(-c2cnc(N)c(NS(=O)(=O)c3ccccc3)n2)cc1` [Compound V-14, N-(3-amino-6-(4-(methylsulfonyl)phenyl)pyrazin-2-yl)benzenesulfonamide], the inhibitory constant (Ki) is above 1 µM and the “% inhibition of ATR” value is “no detectable inhibition”.

Regarding `CC(C)S(=O)(=O)c1ccc(-c2cnc(N)c(NCc3ccccc3)n2)cc1` [Compound V-3], the Ki is above 1 µM and the inhibition at 8 µM came out at 10%.

With `CC(C)S(=O)(=O)c1ccc(-c2cnc(N)c(NC[C@H](O)c3ccccc3)n2)cc1` [Compound V-6, (1R)-2-[[3-amino-6-(4-isopropylsulfonylphenyl)pyrazin-2-yl]amino-]-1-phenyl-ethanol], the Ki was above 1 µM and the inhibition at 8 µM worked out at 10%.

`CS(=O)(=O)c1ccc(-c2cnc(N)c(OCc3ccccc3)n2)cc1` [Compound V-9]: the Ki is at most 0.1 µM.

Regarding `CC(C)S(=O)(=O)c1ccc(-c2cnc(N)c(NCCc3ccccc3)n2)cc1` [Compound V-13, 6-(4-(isopropylsulfonyl)phenyl)-N2-phenethylpyrazine-2,3-diamine], the inhibition constant (Ki) is above 1 µM.

For `CS(=O)(=O)c1ccc(-c2cnc(N)c(/C=C/c3ccccc3)n2)cc1` [Compound V-10], the Ki was at most 0.1 µM.

As for `CC(C)S(=O)(=O)c1ccc(-c2cnc(N)c(/C(F)=C/c3ccccc3)n2)cc1` [Compound V-16, (Z)-3-(1-fluoro-2-phenylvinyl)-5-(4-(isopropylsulfonyl)phenyl)pyrazin-2-amine], the Ki is at most 0.1 µM.

As to `CC(C)S(=O)(=O)c1ccc(-c2cnc(N)c(N3CCC(N)C3)n2)cc1` (centres unmarked) [Compound V-2, 3-(3-Aminopyrrolidin-1-yl)-5-(4-isopropylsulfonylphenyl)pyrazin-2-amine], the Ki was above 1 µM and the inhibition at 8 µM amounted to 10%.

Take `CC(C)n1cc(-c2cnc(N)c(OCc3ccccc3)n2)ccc1=O` [Compound V-15, 5-(5-amino-6-(benzyloxy)pyrazin-2-yl)-1-isopropylpyridin-2(1H)-one]: the Ki fell in the range of 0.1 to 1 µM.

As for `CC(C)S(=O)(=O)c1ccc(-c2cnc(N)c(CCc3ccccc3)n2)cc1` [Compound V-11, 5-(4-Isopropylsulfonylphenyl)-3-phenethyl-pyrazin-2-amine], the Ki was at most 0.1 µM.

`CC(C)S(=O)(=O)c1ccc(-c2cnc(N)c(NCC3=CC(O)CC=C3)n2)cc1` (centres unmarked) [Compound V-4]: the Ki fell in the range of 0.1 to 1 µM.

Regarding `CC(C)S(=O)(=O)c1ccc(-c2cnc(N)c(C(=O)c3ccccc3)n2)cc1` [Compound V-12, [3-Amino-6-(4-isopropylsulfonylphenyl)pyrazin-2-yl]-phenyl-methanone], the Ki is at most 0.1 µM.

Consider `CC(C)S(=O)(=O)c1ccc(-c2cnc(N)c(N3CCN(c4ccccc4)CC3)n2)cc1` [Compound V-1, 5-(4-Isopropylsulfonylphenyl)-3-(4-phenylpiperazin-1-yl)pyrazin-2-amine], for which the “% inhibition of ATR” value was “no detectable inhibition”.
